Test results: US20220228111A1, “NOCICEPTOR DIFFERENTIATION FROM HUMAN PLURIPOTENT STEM CELLS” (priority 2019, published 2022)
pIC50: −log10 of the molar value. Entries after “also recorded” stand apart in the source; their conditions may differ.

How the values were obtained:
[1] = test system: iPSC-derived nociceptor-like cells; assay: Multi-electrode array: sensitization of nociceptor-like cells with temperature stimulation; assay type: cell-based, human; details: then 40° C., day 28
From the text: FIGS. 12A and 12B illustrate the results of an electrophysiology experiment (multi-electrode array using Maestro Pro, Axion Biosystems) showing that iPSC-derived nociceptor-like cells were sensitized in response to treatment with oxaliplatin and prostaglandin E2 (PGE2). Oxaliplatin is a widely used chemotherapeutic drug that can damage sensory neurons of the peripheral nervous system and lead to peripheral neuropathy. PGE2 is used to model inflammatory pain. At day 28 of the procedure described in Example 1, the iPSC-derived nociceptor-like cells were recorded at 37° C. for 10 minutes for baseline recording, and then pre-treated with 0.1% DMSO, 50 μM Oxaliplatin or 1 μM PGE2 for 15 minutes at 37° C. The temperature was then increased to 40° C. to stimulate the cells, and recording was performed for another 10 minutes.

[2] = test system: iPSC-derived nociceptor-like cells; assay: Multi-electrode array: stimulation of nociceptor-like cells by specific ligands; assay type: cell-based, human
Method: Functional analysis of nociceptors derived from iPSCs according to the procedure described in Example 1 was performed. Multi-electrode arrays were used for the electrophysiology characterization experiments.

cellular target = details: cited from earlier work; for pIC50: as described in Sidrauski et al.
[3] = biological target: T1, purinergic receptor P2RX3 (Homo sapiens, UniProt P56373); assay: Multi-electrode array: α,β-me-ATP stimulation and P2RX3 antagonist block in nociceptor-like cells; assay type: cell-based; details: 10 μM, day 28, multi-electrode array
T1 construct: iPSC-derived nociceptor-like cells were stimulated by application of 10 μM α,β-me-ATP, which is a known agonist for P2RX3 purinergic receptors; endogenous in cells; host or cells: iPSC-derived nociceptor-like cells, day 28 of differentiation
T1 sequence (P56373 1-397): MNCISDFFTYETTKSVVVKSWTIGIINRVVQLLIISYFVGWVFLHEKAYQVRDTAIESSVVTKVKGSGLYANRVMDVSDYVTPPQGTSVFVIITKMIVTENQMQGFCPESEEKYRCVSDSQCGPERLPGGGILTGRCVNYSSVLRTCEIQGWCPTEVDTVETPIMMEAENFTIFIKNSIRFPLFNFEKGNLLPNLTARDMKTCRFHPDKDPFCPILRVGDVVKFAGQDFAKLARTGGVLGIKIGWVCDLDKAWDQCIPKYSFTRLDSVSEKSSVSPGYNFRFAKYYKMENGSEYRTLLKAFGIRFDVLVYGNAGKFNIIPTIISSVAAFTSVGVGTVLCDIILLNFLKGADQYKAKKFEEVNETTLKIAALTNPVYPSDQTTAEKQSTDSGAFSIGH
Method: At day 28 of the procedure described in Example 1, the iPSC-derived nociceptor-like cells were pre-treated with 0.1% DMSO or 10 μM of each known antagonist of purinergic receptor P2RX3 for 30 minutes at 37° C. The cells were then stimulated by 10 μM α,β-me-ATP, and recordings were performed using multi-electrode.

Structure (SMILES): CCCCC[C@H](O)/C=C/[C@H]1[C@H](O)CC(=O)[C@@H]1C/C=C\CCCC(=O)O [PGE2, prostaglandin E2]
- sensitization of nociceptor-like cells ([1]; 1 μM pre-treatment 15 minutes at 37° C.): sensitized

Structure (SMILES): COc1cc(CNC(=O)CCCC/C=C/C(C)C)ccc1O [capsaicin]
- response: frequency of firing action potentials ([2]; 5 μM): increasing the frequency of firing action potentials; also recorded: stimulated

Structure (SMILES): O=C(COc1ccc(Cl)cc1)NC1CCC(NC(=O)COc2ccc(Cl)cc2)CC1 (stereo not drawn) [cis-ISRIB]
- pIC50 (cellular target): 6.22

Structure (SMILES): C=CCN=C=S [mustard oil, allyl isothiocyanate]
- response: frequency of firing action potentials ([2]; 100 μM): increasing the frequency of firing action potentials; also recorded: stimulated

Structure (SMILES): O=C1[O][Pt]2([NH][C@@H]3CCCC[C@H]3[NH]2)[O]C1=O [oxaliplatin]
- sensitization of nociceptor-like cells ([1]; 50 μM pre-treatment 15 minutes at 37° C.): sensitized

Structure (SMILES): O=C(COc1ccc(Cl)cc1)N[C@H]1CC[C@H](NC(=O)COc2ccc(Cl)cc2)CC1 [trans-ISRIB, N,N′-((1r,4r)-cyclohexane-1,4-diyl)bis(2-(4-chlorophenoxy)acetamide)]
- pIC50 (cellular target): 8.30
- fold more potent than cis-ISRIB (cellular target; trans-ISRIB vs cis-ISRIB): 100 fold

Structure (SMILES): Nc1ncnc2c1ncn2[C@@H]1O[C@H](COP(=O)(O)CP(=O)(O)OP(=O)(O)O)[C@@H](O)[C@H]1O [α,β-me-ATP]
- response: frequency of firing action potentials ([2]; 10 μM): increasing the frequency of firing action potentials; also recorded: stimulated
- stimulation of nociceptor-like cells [3]: stimulated
